Source: the supplement of paper PMC10307832

Tests used:
Test in all cases: relative viability (nuclei count vs DMSO), 5 days (fraction); higher = more cells survive
[1] = compound: COc1cc(-c2nn([C@H]3CC[C@H](N4CCN(C(C)=O)CC4)CC3)c3ncnc(N)c23)ccc1NC(=O)c1cc2ccccc2n1C + Cc1nc(NC(=O)N2CCC[C@H]2C(N)=O)sc1-c1ccnc(C(C)(C)C(F)(F)F)c1 [Alpelisib] (partner 2 µM)
Summary of the method: (§1)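 Values are medians from duplicate plates. Each reflects relative viability, defined as the nuclei count of treated wells over that of vehicle wells. Lung cancer cell lines in 1536-well plates were pin-tool dosed one day after seeding with one drug alone or with a fixed anchor-drug dose plus five library-drug doses (not always all listed) in √10 steps, then fixed, stained and imaged at 4× after 5 days.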

Midostaurin + Linsitinib = compound: CO[C@@H]1[C@H](N(C)C(=O)c2ccccc2)C[C@H]2O[C@]1(C)n1c3ccccc3c3c4c(c5c6ccccc6n2c5c31)C(=O)NC4 [Midostaurin] + C[C@]1(O)C[C@@H](c2nc(-c3ccc4ccc(-c5ccccc5)nc4c3)c3c(N)nccn32)C1 [Linsitinib] (partner 1 µM)
Summary of the method: as §1

[2] = compound: COc1cc(-c2nn([C@H]3CC[C@H](N4CCN(C(C)=O)CC4)CC3)c3ncnc(N)c23)ccc1NC(=O)c1cc2ccccc2n1C + N=C(N)NC(=N)NCCc1ccccc1 [Phenformin] (partner 250 µM)
Summary of the method: as §1

[3] = compound: CO[C@@H]1[C@H](N(C)C(=O)c2ccccc2)C[C@H]2O[C@]1(C)n1c3ccccc3c3c4c(c5c6ccccc6n2c5c31)C(=O)NC4 [Midostaurin] + CC(=O)c1c(C)c2cnc(Nc3ccc(N4CCNCC4)cn3)nc2n(C2CCCC2)c1=O [Palbociclib] (partner 0.5 µM)
Summary of the method: as §1

[4] = compound: COc1cc(-c2nn([C@H]3CC[C@H](N4CCN(C(C)=O)CC4)CC3)c3ncnc(N)c23)ccc1NC(=O)c1cc2ccccc2n1C + CC(=O)c1c(C)c2cnc(Nc3ccc(N4CCNCC4)cn3)nc2n(C2CCCC2)c1=O [Palbociclib] (partner 0.5 µM)
Summary of the method: as §1

Cell Line | relative viability ([1]; first compound 0.0128 µM) | relative viability ([1]; first compound 0.04048 µM) | relative viability ([1]; first compound 0.128 µM) | relative viability ([1]; first compound 1.28 µM) | relative viability (Midostaurin + Linsitinib; first compound 0.01 µM) | relative viability (Midostaurin + Linsitinib; first compound 0.1 µM) | relative viability (Midostaurin + Linsitinib; first compound 0.3162 µM) | relative viability ([2]; first compound 0.0128 µM) | relative viability ([2]; first compound 0.04048 µM) | relative viability ([2]; first compound 0.128 µM) | relative viability ([2]; first compound 1.28 µM) | relative viability ([3]; first compound 0.01 µM) | relative viability ([3]; first compound 0.03162 µM) | relative viability ([3]; first compound 0.1 µM) | relative viability ([3]; first compound 0.3162 µM) | relative viability ([4]; first compound 0.0128 µM) | relative viability ([4]; first compound 0.04048 µM) | relative viability ([4]; first compound 0.128 µM) | relative viability ([4]; first compound 1.28 µM) | relative viability (Midostaurin + Linsitinib; first compound 0.03162 µM)
LCLC-97TM1 | 0.252 | 0.203 | 0.226 | 0.319 | 0.193 | 0.145 | 0.184 | 0.501 | 0.377 | 0.461 | 0.416 | 0.276 | 0.233 | 0.251 | 0.244 | 0.22 | 0.194 | 0.241 | 0.191 | 
LCLC-103H | 1.02 | 0.938 | 0.88 | 0.775 | 1.12 | 1.16 | 1.14 | 0.397 | 0.327 | 0.342 | 0.358 | 0.449 | 0.484 | 0.512 | 0.542 | 0.509 | 0.474 | 0.433 | 0.503 | 1.16
LK-2 | 0.91 | 1.26 | 1.07 | 0.789 | 0.462 | 0.559 | 0.816 | 0.423 | 0.38 | 0.408 | 0.485 | 0.595 | 0.692 | 0.701 | 0.861 | 0.698 | 0.858 | 0.834 | 0.518 | 0.62
LOU-NH91 | 0.77 | 0.74 | 0.759 | 0.564 | 1.05 | 0.958 | 0.953 | 0.768 | 0.778 | 0.808 | 0.649 | 0.514 | 0.527 | 0.499 | 0.552 | 0.536 | 0.533 | 0.529 | 0.454 | 0.885
LU99A | 0.464 | 0.565 | 0.534 | 0.521 | 0.5 | 0.408 | 0.407 | 0.938 | 0.59 | 0.85 | 0.882 | 0.386 | 0.513 | 0.371 | 0.386 | 0.419 | 0.435 | 0.389 | 0.377 | 0.503
LXF-289 | 1.1 | 1.03 | 1.04 | 0.958 | 1 | 0.866 | 0.953 | 0.545 | 0.497 | 0.492 | 0.46 | 0.625 | 0.615 | 0.645 | 0.642 | 0.673 | 0.648 | 0.549 | 0.706 | 0.967
NCI-H23 | 0.63 | 0.632 | 0.659 | 0.476 | 0.53 | 0.362 | 0.508 | 0.765 | 0.835 | 0.805 | 0.717 | 0.49 | 0.506 | 0.377 | 0.309 | 0.47 | 0.519 | 0.508 | 0.4 | 0.698
NCI-H322M | 0.801 | 0.844 | 0.681 | 0.741 | 0.993 | 1.08 | 1.08 | 0.815 | 0.816 | 0.743 | 0.553 | 0.475 | 0.483 | 0.528 | 0.559 | 0.426 | 0.516 | 0.434 | 0.394 | 0.945
NCI-H358 | 0.725 | 0.747 | 0.76 | 0.555 | 0.818 | 0.813 | 0.599 | 0.329 | 0.283 | 0.254 | 0.187 | 0.123 | 0.134 | 0.114 | 0.136 | 0.145 | 0.137 | 0.126 | 0.115 | 0.607
NCI-H441 | 0.762 | 0.985 | 0.556 | 0.576 | 0.569 | 0.432 | 0.435 | 0.855 | 0.757 | 0.849 | 0.812 | 0.265 | 0.219 | 0.234 | 0.189 | 0.248 | 0.167 | 0.228 | 0.152 | 0.56
NCI-H460 | 0.386 | 0.59 | 0.57 | 0.378 | 0.739 | 0.75 | 0.694 | 0.551 | 0.553 | 0.501 | 0.482 | 0.13 | 0.195 | 0.183 | 0.0929 | 0.17 | 0.133 | 0.148 | 0.153 | 0.732
NCI-H520 | 0.881 | 0.908 | 0.697 | 0.471 | 0.924 | 0.968 | 0.787 | 0.45 | 0.521 | 0.566 | 0.425 | 0.24 | 0.228 | 0.246 | 0.276 | 0.197 | 0.227 | 0.206 | 0.12 | 0.991
NCI-H647 | 1.03 | 1.18 | 0.945 | 0.429 | 1.09 | 1.1 | 0.738 | 0.526 | 0.528 | 0.428 | 0.4 | 0.462 | 0.396 | 0.485 | 0.465 | 0.391 | 0.382 | 0.4 | 0.216 | 1.37
NCI-H650 | 1.49 | 1.34 | 1.12 | 1.05 | 0.715 | 0.76 | 0.508 | 0.519 | 0.593 | 0.459 | 0.462 | 0.347 | 0.34 | 0.318 | 0.313 | 0.35 | 0.385 | 0.3 | 0.339 | 0.862
NCI-H661 | 0.418 | 0.526 | 0.729 | 0.376 | 0.56 | 0.532 | 0.439 | 0.271 | 0.273 | 0.256 | 0.261 | 0.399 | 0.41 | 0.438 | 0.469 | 0.421 | 0.436 | 0.42 | 0.419 | 0.638
